# Assay results published in US9404080B2, “Human taste cells capable of continuous proliferation” (B.R.A.I.N. BIOTECHNOLOGY RESEARCH AND INFORMATION NETWORK AG, priority 2012, dated 2016).
# Entries after “also recorded” stand apart in the source; their conditions may differ.
# Tests used:
# [1] = test system: human taste cells BR-HTC8; experiment: FLIPR fluorescent membrane potential (FMP) imaging assay in BR-HTC8; type: cell-based; conditions: for change of cellular membrane potential (FLIPR FMP dye fluorescence) on addition of the test molecule: BR-HTC8, increasing concentrations in KH-buffer; for FMP assay BR-HTC8: dose-dependent decrease in cellular membrane potential on stimulation with the cognate bitter molecule of the TAS2R; for FMP assay BR-HTC8: key: + indicates that the analysis was successful and that the mRNA was detected by RT-PCR or that stimulation of human taste cells with the respective taste molecule resulted in a dose-dependent increase in intracellular calcium or decrease in cellular membrane potential
# Protocol: This cell depolarization was measured by using voltage-sensitive dyes including FLIPR fluorescent membrane potential (FMP) dye (Molecular Devices R8123). Before the assay, cells were maintained in HTC medium for at least 48 hours as described above in Example 1. Cells were then trypsinized with accutase (e.g. PAA, L11-007) or TrypLE (e.g. Gibco, 12563) and seeded into poly-D-lysine coated 96-well assay plates (Corning) at a density of 15,000 cells/well in […].
# After 24 hours, medium was removed and the cells are washed once with 100 μl KH buffer (10 mM HEPES pH7.4 containing 118 mM NaCl, 4.7 mM KCl, 4.2 mM NaHCO3, 1.2 mM KH2PO4, 1.2 mM MgSO4, 1.3 mM CaCl2) and then stained with 200 μl KH buffer containing FLIPR FMP dye according instructions of the manufacturer […] and incubation for 2 hours at 37° C. The plates were then transferred into a fluorescence microplate reader to monitor changes in membrane potential-dependent fluorescence (excitation 530 nm, emission 565 nm) after the addition of 50 μl KH-buffer supplemented with the test molecule under investigation. The test molecule was added 16 seconds after starting the scan and baseline recording, mixed twice, and then recording continued for additional 74 seconds. Data points of a total of 35 reads were collected.
# Data analysis/Data recording—Changes of the membrane potential was measured as the change of peak fluorescence (ΔF) over the baseline level (F). Data were expressed as the mean S.E. of the ΔF/F value of replicated independent samples. Data analysis was done with software provided by the manufacturer of the microplate reader (Molecular Devices).
# (§1) To test, whether stimulation of human taste cells with taste molecules leads to changes in cellular membrane potential the FLIPR fluorescent membrane potential assay was performed as described above. Non-taste cells including HEK293 cells and non-lingual, proliferating primary cells isolated from the oral cavity served as a control and were treated equally throughout the procedure. Changes in membrane potential were recorded on a Molecular Devices Fluorescence microplate reader. Measurement was started by addition of increasing concentrations of the taste molecules in KH-buffer to the cells. KH-buffer served as negative control and KH-buffer containing 4 μM FCCP (e.g. Sigma, C2920) served as a positive control. […] Data were obtained from several independent experiments and performed in triplicates.
# as §1, with “This cell depolarization can be measured by using voltage-sensitive dyes including FLIPR fluorescent membrane potential (FMP) dye (Molecular Devices R8123) as described above in Example 6. To” for “To”, “oxytocin” for “taste molecules”, “oxytocin” for “the taste molecules”
# [2] = test system: human taste cells BR-HTC8; experiment: Fluo-4 fluorescent calcium imaging assay in BR-HTC8; type: cell-based; conditions: for change of Fluo4-fluorescence / intracellular calcium on addition of the test molecule: BR-HTC8, increasing concentrations in KH-buffer with Ca2+; for Fluo-4 assay BR-HTC8: dose-dependent increase in intracellular calcium on stimulation with the cognate bitter molecule of the TAS2R named in the row; for Fluo-4 assay BR-HTC8: key: + indicates that the analysis was successful and that the mRNA was detected by RT-PCR or that stimulation of human taste cells with the respective taste molecule resulted in a dose-dependent increase in intracellular calcium or decrease in cellular membrane potential
# Protocol: Before the assay, cells are maintained in HTC medium for at least 48 hours as described in Example 1. Cells are then trypsinized with accutase (e.g. PAA, L11-007) or TrypLE (e.g. Gibco, 12563) and seeded into poly-D-lysine coated 96-well assay plates (e.g. Corning) at a density of 15,000 cells/well in 100 μl HTC medium.
# After 24 hours, the cells (still in 100 μl medium) are stained by addition of 100 μl of Fluo-4 staining solution, which consists of KH buffer (10 mM HEPES pH7.4 containing 118 mM NaCl, 4.7 mM KCl, 4.2 mM NaHCO3, 1.2 mM KH2PO4, 1.2 mM MgSO4, 1.3 mM CaCl2) containing 4 μM Fluo-4 (Molecular Probes) and incubation for 1 hour at 37° C. Final Fluo-4 concentration in the staining solution/medium mixture is 2 μM. Staining solution is then replaced by 80 μl KH-buffer per well and plates are transferred into a fluorescence microplate reader to monitor changes in Ca^2+-dependent fluorescence (excitation 488 nm, emission 530 nm) after the addition of 20 μl KH-buffer supplemented with the test molecule under investigation. The test molecule was added 16 seconds after starting the scan and baseline recording, mixed twice, and then recording continued for additional 44 seconds. Data points of a total of 18 reads were collected. Data analysis/Data recording—Calcium mobilization was measured as the change of peak fluorescence (ΔF) over the baseline level (F). Data were expressed as the mean S.E. of the ΔF/F value of replicated independent samples. Data analysis was done with software provided by the manufacturer of the microplate reader (e.g. Molecular Devices).
# (§2) To test, whether stimulation of human taste cells with these taste molecules leads to changes in intracellular calcium the Fluo-4 fluorescent calcium imaging assay was performed as described above. Non-taste cells including HEK293 cells and non-lingual, proliferating primary cells isolated from the oral cavity served as a control and were treated equally throughout the procedure. Changes in Ca^2+-dependent Fluo-4 fluorescence were recorded on a Molecular Devices Fluorescence microplate reader. Measurement was started by addition of increasing concentrations of the taste molecules in KH-buffer to the cells. KH-buffer served as negative control and KH-buffer containing 1 μM ionomycin served as a positive control. […] Calcium signals for each test molecule are depicted as Relative Fluorescence Units (RFU), which means that calcium mobilization in response to taste molecules was calculated dF/F0, with dF is (peak fluorescence F1−baseline fluorescence F0). […] Data were obtained from several independent experiments and performed in triplicates.
# In order to perform to the Fluo-4 fluorescent calcium imaging experiment in the absence of extracellular Ca^2+ the procedure was conducted as described above, however, the KH-buffer was prepared without addition of Ca^2+. Measurement was started by addition of increasing concentrations of the taste molecules in KH-buffer without Ca^2+ to the cells. KH-buffer without Ca^2+ served as negative control and KH-buffer without Ca^2+ containing 1 μM ionomycin served as a positive control.
# To test, whether stimulation of human taste cells with oxytocin leads to changes in intracellular calcium the Fluo-4 fluorescent calcium imaging assay was performed as described above in Example 5. Briefly, the human taste cells were seeded in 96-well plates and stained with 2 μM of the calcium-sensitive fluorescence dye Fluo4 in HTC/KH buffer medium for one hour at 37° C. with subsequent replacement of the staining solution with KH-buffer. Non-taste cells including HEK293 cells and non-lingual, proliferating primary cells isolated from the oral cavity served as a control and were treated equally throughout the procedure. Changes in Ca^2+-dependent Fluo-4 fluorescence were recorded on a Molecular Devices Fluorescence microplate reader.
# [3] = test system: Non-taste cells including HEK293 cells, Cal33 cells, and non-lingual, proliferating primary cells isolated from the oral cavity; experiment: Fluo-4 fluorescent calcium imaging assay in non-taste control cells; type: cell-based, human
# Protocol: Briefly, human taste cells were seeded in 96-well plates and stained with Fluo4-AM. Non-taste cells including HEK293 cells, Cal33 cells, and non-lingual, proliferating primary cells isolated from the oral cavity served as a control. Changes in Ca^2+-dependent Fluo-4 fluorescence were recorded on a Molecular Devices fluorescence microplate reader. Measurement was started by addition of increasing concentrations of the taste molecules. […] Calcium signals for each test molecule are depicted as relative fluorescence units (RFU).
# as §2
# BR-HTC38 cells = experiment: Fluo-4 fluorescent calcium imaging assay in TAS2R38-transduced BR-HTC38; type: cell-based, human; conditions: BR-HTC38 (TAS2R38 expressed) vs BR-HTC8
# Protocol: Changes in Ca^2+-dependent Fluo-4 fluorescence were recorded on a Molecular Devices fluorescence microplate reader. Measurement was started by addition of increasing concentrations of the taste molecules in KH-buffer to the cells. KH-buffer served as negative control and KH-buffer containing 1 μM ionomycin served as a positive control. […] Calcium signals for each test molecule are depicted as Relative Fluorescence Units (RFU), which means that calcium mobilization in response to taste molecules was calculated dF/F0, with dF is (peak fluorescence F1−baseline fluorescence F0). […] Data were obtained from several independent experiments and performed in triplicates.
compound,measurement,setting,value
"Nc1ncnc2c1ncn2[C@@H]1O[C@H](COP(=O)(O)OP(=O)(O)OP(=O)(O)O)[C@@H](O)[C@H]1O [ATP, adenosine triphosphate]",change of cellular membrane potential (FLIPR FMP dye fluorescence) on addition of the test molecule,[1],dose-dependent decrease in cellular membrane potential; also recorded: dose-dependent decrease of membrane potential
same,change of Fluo4-fluorescence / intracellular calcium on addition of the test molecule,[2],increase in intracellular calcium
CC1=CC(=O)[N-]S(=O)(=O)O1.[K+] [Acesulfame K],change of cellular membrane potential (FLIPR FMP dye fluorescence) on addition of the test molecule,[1],decrease in cellular membrane potential
same,FMP assay BR-HTC8,[1],+
same,change of Fluo4-fluorescence / intracellular calcium on addition of the test molecule,[2],do not trigger an increase in intracellular calcium
same,Fluo-4 assay BR-HTC8,[2],+
COc1cccc2c1cc([N+](=O)[O-])c1c(C(=O)O)cc3c(c12)OCO3 [Aristolochic acid],change of cellular membrane potential (FLIPR FMP dye fluorescence) on addition of the test molecule,[1],dose-dependent decrease in cellular membrane potential; also recorded: dose-dependent decrease of membrane potential
same,FMP assay BR-HTC8,[1],+
same,change of Fluo4-fluorescence / intracellular calcium on addition of the test molecule,[2],dose-dependent increase of Fluo4-fluorescence
same,Fluo-4 assay BR-HTC8,[2],+
same,increase of Fluo4-fluorescence in control cells,[3],not in control cells
O=C(N[C@H](CO)[C@H](O)c1ccc([N+](=O)[O-])cc1)C(Cl)Cl [Chloramphenicole],Fluo-4 assay BR-HTC8,[2],+
CCN(CC)CCCC(C)Nc1ccnc2cc(Cl)ccc12 (centres unmarked) [Chloroquine],FMP assay BR-HTC8,[1],+
CC[N+](CC)(CC(=O)Nc1c(C)cccc1C)Cc1ccccc1.O=C([O-])c1ccccc1 [Denatonium benzoat],Fluo-4 assay BR-HTC8,[2],+
O=C(O[C@@H]1Cc2c(O)cc(O)cc2O[C@@H]1c1cc(O)c(O)c(O)c1)c1cc(O)c(O)c(O)c1 [EGCG],Fluo-4 assay BR-HTC8,[2],+
O=S(=O)(NCCNC/C=C/c1ccc(Br)cc1)c1cccc2cnccc12 [H89],calcium response to saccharin in the presence of H89,"[2]; 0.5 μM H89, BR-HTC8",not reduced
same,calcium signalling on stimulation with salicin in the presence of H89,"[2]; 0.5 μM H89, BR-HTC8",slightly inhibited
"COc1cc(OC2CCN(C(C)=O)CC2)ccc1C(=O)N1CCC(N2C(=O)OCc3ccccc32)CC1 [L371,257]","calcium signalling on stimulation with oxytocin in the presence of L371,257","[2]; 40 nM L371,257, BR-HTC8",inhibited
CC1COc2c(N3CCN(C)CC3)c(F)cc3c(=O)c(C(=O)O)cn1c23 (centres unmarked) [Ofloxacine],Fluo-4 assay BR-HTC8,[2],+
Cc1ccccc1C(OCCN(C)C)c1ccccc1 (centres unmarked) [Orphenadrine],Fluo-4 assay BR-HTC8,[2],+
"NC(=S)Nc1ccccc1 [PTC, phenylthiocarbamide]",FMP assay BR-HTC8,[1],+
same,change of Fluo4-fluorescence / intracellular calcium on addition of the test molecule,[2],dose-dependent increase of Fluo4-fluorescence
same,Fluo-4 assay BR-HTC8,[2],+
same,dose-dependent Fluo-4 calcium response in BR-HTC38 compared with parental BR-HTC8,BR-HTC38 cells,enhanced
O=C1NS(=O)(=O)c2ccccc21 [Saccharin],change of Fluo4-fluorescence / intracellular calcium on addition of the test molecule,[2],dose-dependent increase of Fluo4-fluorescence
same,Fluo-4 calcium response in the absence of extracellular Ca2+,"[2]; KH-buffer without Ca2+, BR-HTC8, molecule alone",cannot trigger a Ca^2+ response; also recorded: did not trigger increase of intracellular Ca^2+; also recorded: no response
same,increase of intracellular calcium in response to salicin when combined with saccharin,"[2]; absence of extracellular calcium, increasing salicin with four fixed concentrations of saccharin",strongly enhanced
same,Fluo-4 assay BR-HTC8,[2],+
same,increase of Fluo4-fluorescence in control cells,[3],not in control cells
same,dose-dependent Fluo-4 calcium response in BR-HTC38 compared with parental BR-HTC8,BR-HTC38 cells,enhanced
COc1ccc2c(c1)CC[C@@H]1[C@@H]2CC[C@]2(C)[C@@H](NCCCCCCN3C(=O)C=CC3=O)CC[C@@H]12 [U73122],calcium response to saccharin in the presence of U73122,"[2]; 5 μM U73122, BR-HTC8",not reduced
same,calcium signalling on stimulation with salicin in the presence of U73122,"[2]; 5 μM U73122, BR-HTC8",inhibited
CCCCC/C=C\C/C=C\CCCCCCCC(=O)O [linoleic acid],change of Fluo4-fluorescence / intracellular calcium on addition of the test molecule,[2],dose-dependent increase of Fluo4-fluorescence
same,increase of Fluo4-fluorescence in control cells,[3],not in control cells
CCCCCCCC/C=C\CCCCCCCC(=O)O [oleic acid],change of Fluo4-fluorescence / intracellular calcium on addition of the test molecule,[2],dose-dependent increase of Fluo4-fluorescence
same,increase of Fluo4-fluorescence in control cells,[3],not in control cells
CC[C@H](C)[C@@H]1NC(=O)[C@H](Cc2ccc(O)cc2)NC(=O)[C@@H](N)CSSC[C@@H](C(=O)N2CCC[C@H]2C(=O)N[C@@H](CC(C)C)C(=O)NCC(N)=O)NC(=O)[C@H](CC(N)=O)NC(=O)[C@H](CCC(N)=O)NC1=O [oxytocin],change of cellular membrane potential (FLIPR FMP dye fluorescence) on addition of the test molecule,[1],dose-dependent decrease of membrane potential
same,change of Fluo4-fluorescence / intracellular calcium on addition of the test molecule,[2],dose-dependent increase of Fluo4-fluorescence
